Measured values as given in patent US8778958B2, “Synthesis of metabolically stable agents for alcohol and drug abuse” (priority 2008, dated 2014).
Where two headings read alike, the source gives them in different places.

Assays:
[1] = system: rats self-administering 0.5 mg/kg/injection of cocaine; experiment: Cocaine self-administration, short (ShA) and long access (LgA)
[2] = system: rats trained to self-administer a 10% (w/v) ethanol solution; experiment: Operant oral ethanol self-administration; type: in vivo, rat; settings: for Overall effect on operant self-administration of 10% ethanol: ANOVA, treatment 30 min prior to testing
Procedure: (§1) Ethanol or saccharin (SACC) self-administration training was conducted in standard operant cages (Coulbourn Instruments, PA) located in sound-attenuated, ventilated cubicles. Two 35-ml syringes dispensed either ethanol/SACC or water through plastic tubing into two stainless steel drinking cups mounted 4 cm above the grid floor and centered on the front panel of each chamber. Each drinking cup held 2 reinforcer deliveries (0.1 ml fluid/reinforcer). Two retractable levers were located 4.5 cm to either side of the drinking cups. Fluid delivery and recording of operant responses were controlled by a microcomputer. Briefly, animals were trained to voluntarily self-administer 10% (w/v) ethanol (n=10) or saccharin (n=6) by the oral route using the saccharin fadeout method^39 and were tested for their response for ethanol or saccharin solution in a two-lever free choice situation. Once baseline ethanol and saccharin intake were achieved (i.e., when responding across 3 consecutive days varied less than 20% and response rates correspond to pharmacologically relevant blood alcohol levels (BALs)), dose response testing for each compound commenced. To allow for a complete dissipation of any carry-over effects, a one week washout period, where rats were re-baselined during daily 30 min operant sessions, occurred between testing of each compound.
(§2) Data were collected on-line simultaneously from multiple operant chambers. Results of the operant procedure are reported as mean cumulative number of bar presses for ethanol or saccharin. In general, tests for homogeneity of variance were first performed on the data. […] Data were analyzed using the StatView statistical package on a PC-compatible computer. Mixed-design ANOVAs were used with drug treatments as a within-subjects factor (i.e., repeated measures design for drug treatment). A priori analysis examining individual drug doses to vehicle control dose was conducted using paired t-tests. Significant drug effects were defined as having p<0.05 compared to vehicle-treated rats.

[3] = Metabolic stability, human liver S-9; settings: for Half Life, Human liver preparation: 40 μM test compound, NADPH-generating system, NC = No Change; for half-life at 40 μM: human, s9, pH 7.4
Procedure: (§3) A typical assay mixture contained rat or mouse liver microsomes or human liver S-9 (0.4-0.5 mg of protein), 100 μM potassium phosphate buffer (pH 7.4), 40 μM test compound, an NADPH-generating system consisting of 0.5 mM NADP^+, 0.5 mM glucose-6-phosphate, 5 IU/mL glucose-6-phosphate dehydrogenase, 1 mg/mL DETAPAC and 7 mM MgCl2 for a final incubation volume of 0.1 mL^23. […] After centrifugation at 13,000 rpm for 5 min, the organic fraction was collected and the solvent was removed with a stream of argon. The residue was reconstituted in methanol (200 L), centrifuged at 13,000 rpm for 5 min and the supernatant was analyzed by high-performance liquid chromatography with an Axxi-chrom (straight-phase) silica column (4.6 mm×250 mm, 5 m) or with a Supelco (reverse-phase) HS F5 pentafluorophenyl column (4.6 mm×250 mm, 5 m) as described above.

[4] = target: T1, NOP (nociceptin) receptor (Homo sapiens, UniProt P41146)
T1 sequence (P41146 whole entry): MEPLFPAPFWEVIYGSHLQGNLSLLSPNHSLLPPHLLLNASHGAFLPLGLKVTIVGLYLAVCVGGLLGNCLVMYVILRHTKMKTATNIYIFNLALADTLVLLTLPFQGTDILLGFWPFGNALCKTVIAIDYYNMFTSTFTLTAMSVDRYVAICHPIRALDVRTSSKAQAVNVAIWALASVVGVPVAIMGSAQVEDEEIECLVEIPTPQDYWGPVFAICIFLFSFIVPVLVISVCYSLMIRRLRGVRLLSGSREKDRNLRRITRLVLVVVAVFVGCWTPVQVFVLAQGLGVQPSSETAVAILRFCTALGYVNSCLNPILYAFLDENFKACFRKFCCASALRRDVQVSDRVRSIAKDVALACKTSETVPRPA

[5] = Metabolic stability, mouse liver microsomes; settings: for Half Life, Mouse liver preparation: 40 μM test compound, NADPH-generating system, NC = No Change; for half-life at 40 μM: mouse, microsomes, pH 7.4
Procedure: as §3

μ-opioid receptor [6] = target: T2, μ-opioid receptor (Mus musculus, UniProt P42866); experiment: biochemical; type: biochemical, human; settings: for Emax: read-out: Emax, μ, inhibition of basal [35S]GTPγS binding
T2 construct: FLAG; expressed in transfected cells
T2 sequence (P42866 whole entry): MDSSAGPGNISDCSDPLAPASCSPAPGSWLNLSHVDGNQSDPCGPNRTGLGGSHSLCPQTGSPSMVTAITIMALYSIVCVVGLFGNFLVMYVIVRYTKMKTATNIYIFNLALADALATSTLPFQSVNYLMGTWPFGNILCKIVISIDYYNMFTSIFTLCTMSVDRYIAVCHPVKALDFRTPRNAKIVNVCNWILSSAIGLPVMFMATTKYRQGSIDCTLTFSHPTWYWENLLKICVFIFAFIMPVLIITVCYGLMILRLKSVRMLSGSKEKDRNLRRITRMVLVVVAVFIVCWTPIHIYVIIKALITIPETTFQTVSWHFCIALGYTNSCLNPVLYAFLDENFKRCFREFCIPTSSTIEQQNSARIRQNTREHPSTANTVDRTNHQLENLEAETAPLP

μ-opioid receptor [7] = target: T2, μ-opioid receptor; experiment: biochemical; design: species or system human
κ-opioid receptor [8] = target: T3, κ-opioid receptor (Mus musculus, UniProt P33534); experiment: biochemical; design: species or system human
T3 construct: FLAG; expressed in transfected cells
T3 sequence (P33534 whole entry): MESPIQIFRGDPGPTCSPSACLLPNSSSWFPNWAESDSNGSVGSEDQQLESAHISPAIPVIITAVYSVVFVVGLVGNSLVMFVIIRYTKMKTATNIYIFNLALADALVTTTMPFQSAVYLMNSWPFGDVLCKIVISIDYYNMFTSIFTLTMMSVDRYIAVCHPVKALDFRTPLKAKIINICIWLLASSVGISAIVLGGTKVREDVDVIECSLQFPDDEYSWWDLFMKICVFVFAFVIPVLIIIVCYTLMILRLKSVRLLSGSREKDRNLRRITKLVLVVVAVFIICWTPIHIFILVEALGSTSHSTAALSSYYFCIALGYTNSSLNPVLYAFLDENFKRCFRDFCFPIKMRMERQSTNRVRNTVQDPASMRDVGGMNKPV

[9] = system: rats trained to orally self-administer a 0.025% saccharin solution; experiment: Operant oral saccharin self-administration (control); type: in vivo, rat; settings: for Overall effect on operant self-administration of saccharin vs vehicle: ANOVA
Procedure: as §1, §2

[10] = target: T1, NOP (nociceptin) receptor; experiment: Inhibition of basal [35S]GTPγS binding (inverse agonism), NOP; type: biochemical; design: FLAG; expressed in transfected cells
[11] = Metabolism of compound 6 in human liver microsomes; settings: going from pH 7.4 to pH 10
Procedure: For analysis, 50 μg of 6,6-N-oxide and bromobenzoic acid was used as TLC standards and the UV-vis bands corresponding to these regions were scraped and placed in scintillation vials for counting and quantification. For the HPLC assay, the incubation was stopped by the addition of isopropanol/CH2Cl2 (3/1, v/v), mixed thoroughly and the organic layer was separated by centrifugation. […] The analytes were quantified on the basis of HPLC peak height.

κ-opioid receptor [12] = system: T4, κ-opioid receptor; experiment: biochemical; type: biochemical, human; settings: read-out: Emax, κ, inhibition of basal [35S]GTPγS binding
T4 construct: FLAG; expressed in transfected cells
T4 sequence (P33534 whole entry): as above

δ-opioid receptor [13] = target: T5, δ-opioid receptor (Mus musculus, UniProt P32300); experiment: biochemical; type: biochemical, human; settings: for Emax: read-out: Emax, δ, inhibition of basal [35S]GTPγS binding
T5 construct: hemagglutinin (HA); expressed in transfected cells
T5 sequence (P32300 whole entry): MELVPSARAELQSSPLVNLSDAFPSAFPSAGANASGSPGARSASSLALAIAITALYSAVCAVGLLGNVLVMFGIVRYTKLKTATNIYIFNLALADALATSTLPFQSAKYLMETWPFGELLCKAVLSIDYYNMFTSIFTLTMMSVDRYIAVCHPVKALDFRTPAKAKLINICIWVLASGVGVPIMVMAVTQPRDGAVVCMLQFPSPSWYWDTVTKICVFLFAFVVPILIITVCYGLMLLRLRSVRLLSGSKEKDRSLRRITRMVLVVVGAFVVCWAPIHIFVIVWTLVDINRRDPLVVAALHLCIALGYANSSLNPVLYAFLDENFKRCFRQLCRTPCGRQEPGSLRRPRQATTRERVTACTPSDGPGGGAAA

δ-opioid receptor [14] = target: T5, δ-opioid receptor; experiment: biochemical; design: species or system human
Solubility in H2O = settings: salt as labelled
CYP2C9 = CYP2C9 (Homo sapiens, UniProt P11712); experiment: CYP inhibition, CYP2C9 (diclofenac hydroxylase); settings: 10 μM test compound; ND = no detectable inhibition
Sequence of CYP2C9 (P11712 whole entry): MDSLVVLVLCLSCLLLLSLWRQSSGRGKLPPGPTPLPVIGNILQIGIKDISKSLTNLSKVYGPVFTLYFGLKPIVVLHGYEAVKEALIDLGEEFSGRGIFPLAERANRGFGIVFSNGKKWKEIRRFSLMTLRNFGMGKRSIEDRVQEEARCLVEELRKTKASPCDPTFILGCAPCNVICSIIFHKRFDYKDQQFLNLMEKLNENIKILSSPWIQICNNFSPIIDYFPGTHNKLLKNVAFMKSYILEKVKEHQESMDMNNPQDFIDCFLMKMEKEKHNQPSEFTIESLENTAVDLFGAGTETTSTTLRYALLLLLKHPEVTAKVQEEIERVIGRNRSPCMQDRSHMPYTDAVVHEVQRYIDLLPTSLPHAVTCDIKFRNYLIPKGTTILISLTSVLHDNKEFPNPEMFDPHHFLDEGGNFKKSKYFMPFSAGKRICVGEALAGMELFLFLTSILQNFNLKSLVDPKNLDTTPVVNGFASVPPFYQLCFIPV

CYP2D6 = CYP2D6 (Homo sapiens, UniProt P10635); experiment: CYP inhibition, CYP2D6 (Vivid Blue substrate); settings: 10 μM test compound; ND = no detectable inhibition
Sequence of CYP2D6 (P10635 whole entry): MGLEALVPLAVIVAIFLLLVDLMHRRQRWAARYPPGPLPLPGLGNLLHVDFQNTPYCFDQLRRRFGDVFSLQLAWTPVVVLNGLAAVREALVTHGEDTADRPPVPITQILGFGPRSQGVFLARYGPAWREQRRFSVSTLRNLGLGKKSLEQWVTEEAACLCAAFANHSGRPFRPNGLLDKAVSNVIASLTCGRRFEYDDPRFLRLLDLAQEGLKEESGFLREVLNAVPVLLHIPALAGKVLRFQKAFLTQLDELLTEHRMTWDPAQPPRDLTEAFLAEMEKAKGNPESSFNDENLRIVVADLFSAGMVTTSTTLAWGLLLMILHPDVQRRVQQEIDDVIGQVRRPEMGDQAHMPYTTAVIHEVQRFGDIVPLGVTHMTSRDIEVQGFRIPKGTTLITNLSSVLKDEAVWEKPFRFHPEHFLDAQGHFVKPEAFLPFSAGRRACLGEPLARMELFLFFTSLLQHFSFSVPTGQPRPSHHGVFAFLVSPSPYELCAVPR

κ-opioid receptor [15] = target: T3, κ-opioid receptor; experiment: biochemical; type: biochemical, human
[16] = target: T1, NOP (nociceptin) receptor; experiment: Stimulation of [35S]GTPγS binding (agonist activity), NOP; settings: read-out: EC50, NOP, stimulation of [35S]GTPγS binding; cells printed in μM
CYP2C19 = CYP2C19 (Homo sapiens, UniProt P33261); experiment: CYP inhibition, CYP2C19 (Vivid Blue substrate); settings: 10 μM test compound; ND = no detectable inhibition
Sequence of CYP2C19 (P33261 whole entry): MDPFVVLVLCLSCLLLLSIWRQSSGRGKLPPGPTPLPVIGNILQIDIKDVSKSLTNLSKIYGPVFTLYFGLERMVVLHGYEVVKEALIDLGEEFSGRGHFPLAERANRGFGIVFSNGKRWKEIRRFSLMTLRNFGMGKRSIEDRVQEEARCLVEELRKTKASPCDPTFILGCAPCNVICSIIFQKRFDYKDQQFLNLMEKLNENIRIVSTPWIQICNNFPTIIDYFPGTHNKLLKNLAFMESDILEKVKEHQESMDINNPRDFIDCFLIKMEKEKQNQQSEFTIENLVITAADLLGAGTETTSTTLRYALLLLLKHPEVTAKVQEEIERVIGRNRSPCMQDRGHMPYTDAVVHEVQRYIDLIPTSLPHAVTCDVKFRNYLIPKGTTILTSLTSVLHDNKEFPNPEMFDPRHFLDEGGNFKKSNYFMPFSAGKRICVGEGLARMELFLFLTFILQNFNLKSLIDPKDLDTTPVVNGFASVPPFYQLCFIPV

CYP2B6 = target: T6, CYP2B6 (Homo sapiens, UniProt P20813); experiment: CYP inhibition, CYP2B6 (Vivid Blue substrate); settings: 10 μM test compound; ND = no detectable inhibition
T6 sequence (P20813 1-491): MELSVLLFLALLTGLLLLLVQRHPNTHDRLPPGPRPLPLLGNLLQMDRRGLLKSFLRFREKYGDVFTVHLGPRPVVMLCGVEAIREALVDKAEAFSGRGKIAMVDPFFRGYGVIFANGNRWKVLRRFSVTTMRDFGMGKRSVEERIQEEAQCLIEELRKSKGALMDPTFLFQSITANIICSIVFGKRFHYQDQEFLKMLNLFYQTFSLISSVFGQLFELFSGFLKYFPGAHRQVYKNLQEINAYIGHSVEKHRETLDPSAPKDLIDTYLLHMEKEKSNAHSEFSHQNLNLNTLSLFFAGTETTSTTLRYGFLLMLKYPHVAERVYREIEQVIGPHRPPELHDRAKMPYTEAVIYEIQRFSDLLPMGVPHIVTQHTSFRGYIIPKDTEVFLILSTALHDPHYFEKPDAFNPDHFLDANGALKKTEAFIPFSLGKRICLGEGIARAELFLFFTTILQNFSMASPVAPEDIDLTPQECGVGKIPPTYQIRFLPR

CYP3A4 = CYP3A4 (Homo sapiens, UniProt P08684); experiment: CYP inhibition, CYP3A4 (testosterone 6-hydroxylation); settings: 10 μM test compound; ND = no detectable inhibition
Sequence of CYP3A4 (P08684 whole entry): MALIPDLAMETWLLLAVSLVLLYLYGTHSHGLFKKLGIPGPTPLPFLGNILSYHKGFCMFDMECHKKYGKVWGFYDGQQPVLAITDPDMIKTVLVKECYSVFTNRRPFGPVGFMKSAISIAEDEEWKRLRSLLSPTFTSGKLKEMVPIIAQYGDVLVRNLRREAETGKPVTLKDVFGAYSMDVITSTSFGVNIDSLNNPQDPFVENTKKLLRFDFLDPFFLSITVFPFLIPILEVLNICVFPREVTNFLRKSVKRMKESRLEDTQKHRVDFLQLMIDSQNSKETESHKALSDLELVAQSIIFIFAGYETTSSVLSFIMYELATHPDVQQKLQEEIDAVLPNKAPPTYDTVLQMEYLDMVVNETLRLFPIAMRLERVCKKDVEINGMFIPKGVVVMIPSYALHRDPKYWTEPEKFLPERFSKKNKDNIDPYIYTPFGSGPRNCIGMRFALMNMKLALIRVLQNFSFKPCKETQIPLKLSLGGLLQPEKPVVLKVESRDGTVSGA

[17] = read-out: Emax, μ, stimulation of [35S]GTPγS binding
[18] = read-out: Emax, κ, stimulation of [35S]GTPγS binding
[19] = read-out: Emax, δ, stimulation of [35S]GTPγS binding
[20] = percentage of basal [35S]GTPγS binding stimulation

Question: Which results are given for `O=C1CC[C@@]2(O)[C@H]3Cc4ccc(O)c5c4[C@@]2(CCN3CC2CC2)[C@H]1O5` [Compound 1a, naltrexone, reference compound]?
Answer: Cocaine intake, schedule not stated [1]: decreased cocaine intake in both groups; ED50 ([2]; Rattus norvegicus, po, read-out: ED50 for ethanol self-administration): ~0.5 mg/kg

Question: Which “Half Life, Human liver preparation” value [3] does the source give for `Cc1ccc(C(=O)N[C@@H]2CC[C@@]3(O)[C@H]4Cc5ccc(O)c6c5[C@@]3(CCN4CC3CC3)[C@H]2O6)cc1` [Compound 4, 6-β-(4′-Methyl)benzamido-14-hydroxy-17-(cyclopropylmethyl) nordesmorphine] here?
Answer: remained unchanged

Question: What about the Emax [4] of the same compound?
Answer: 0%

Question: And the “Half Life, Mouse liver preparation” value [5]?
Answer: remained unchanged

Question: And the Emax (μ-opioid receptor [6])?
Answer: 3 ± 2.4%

Question: What about the melting point of the same compound?
Answer: 207.6 °C

Question: Which results are given for `O=C(N[C@@H]1CC[C@@]2(O)[C@H]3Cc4ccc(O)c5c4[C@@]2(CCN3CC2CC2)[C@H]1O5)c1ccc(C(F)(F)F)cc1` [Compound 5, 6-β-(4′-Trifluoromethyl)benzamido-14-hydroxy-17-(cyclopropylmethyl)nordesmorphine]?
Answer: Half Life, Human liver preparation [3]: remained unchanged; Emax (μ-opioid receptor [7]; [17]): 28 to 63%; Emax [4]: 0%; Overall effect on operant self-administration of 10% ethanol [2]: had an overall effect; Post hoc analysis vs vehicle, operant self-administration of 10% ethanol ([2]; doses of 0.0125, 0.025 and 0.05 mg/kg): significantly inhibited; Half Life, Mouse liver preparation [5]: remained unchanged; Emax (κ-opioid receptor [8]; [18]): 28 to 63%; Overall effect on operant self-administration of saccharin vs vehicle [9]: did have an overall effect; Post-hoc analysis vs vehicle, self-administration of saccharin ([9]; […] for 5, 0.05 mg/kg for 6, the only such doses): significantly inhibited; melting point: 157.5 °C

Question: Which results are given for `O=C(N[C@@H]1CC[C@@]2(O)[C@H]3Cc4ccc(O)c5c4[C@@]2(CCN3CC2CC2)[C@H]1O5)c1ccc(Br)cc1` [Compound 6, 6-β-(4′-Bromo)benzamido-14-hydroxy-17-(cyclopropylmethyl) nordesmorphine]?
Answer: EC50 [10]: 94 ± 33 nM; Emax ([10]; read-out: Emax, NOP, inhibition of basal [35S]GTPγS binding): 92 ± 7.4%; half-life at 40 μM [3]: > 1.87 h; Emax, μ, stimulation of [35S]GTPγS binding (μ-opioid receptor [7]): 38 ± 4.3%; Emax (μ-opioid receptor [7]; [17]): 28 to 63%; Emax [4]: 0%; Rate of N-oxide formation, dependence on pH [11]: the rate doubled; Emax (κ-opioid receptor [12]): 0%; half-life at 40 μM [5]: > 1.87 h; Emax, κ, stimulation of [35S]GTPγS binding (κ-opioid receptor [8]): 42 ± 3.9%; Emax (κ-opioid receptor [8]; [18]): 28 to 63%; Emax (δ-opioid receptor [13]): 35 ± 4.8%; Emax (μ-opioid receptor [6]): 0%; Emax, δ, stimulation of [35S]GTPγS binding (δ-opioid receptor [14]): 46 ± 3.7%; Emax (δ-opioid receptor [14]; [19]): 28 to 63%

Question: With `O=C(N[C@@H]1CC[C@@]2(O)[C@H]3Cc4ccc(O)c5c4[C@@]2(CCN3CC2CC2)[C@H]1O5)c1ccc(Br)cc1.O=C(O)C(=O)O` [Compound 6-oxalate, 6-β-(4′-Bromo)benzamido-14-hydroxy-17-(cyclopropylmethyl) nordesmorphine-oxalate] as the compound, how does the “Cocaine intake, schedule not stated” value [1] read?
Answer: decreased cocaine intake in both groups

Question: And the “Cocaine self-administration under a PR schedule” value [1]?
Answer: dose-dependently decreased cocaine self-administration

Question: What about the “Solubility in H2O” value (Solubility in H2O) of the same compound?
Answer: 200 µg/mL

Question: For `CC(C)(C)c1ccc(C(=O)N[C@@H]2CC[C@@]3(O)[C@H]4Cc5ccc(O)c6c5[C@@]3(CCN4CC3CC3)[C@H]2O6)cc1` [Compound 8, 6-(4′-t-Butyl)benzamido-14-hydroxy-17-(cyclopropylmethyl)nordesmorphine], which half-life at 40 μM [3] is on record?
Answer: > 1.87 h

Question: And the Emax [4]?
Answer: 0%

Question: What about the “Overall effect on operant self-administration of 10% ethanol” value [2] of the same compound?
Answer: had an overall effect

Question: What about the “Post hoc analysis vs vehicle, operant self-administration of 10% ethanol” value ([2]; only a dose of 0.05 mg/kg) of the same compound?
Answer: significantly inhibited

Question: And the half-life at 40 μM [5]?
Answer: > 1.87 h

Question: And the “Overall effect on operant self-administration of saccharin vs vehicle” value [9]?
Answer: did not have an overall effect

Question: What about the melting point of the same compound?
Answer: 151.1 °C

Question: With `O=C(N[C@@H]1CC[C@@]2(O)[C@H]3Cc4ccc(O)c5c4[C@@]2(CCN3CC2CC2)[C@H]1O5)c1ccc(Cl)c(Cl)c1` [Compound 9, 6-β-(3′,4′-Dichloro)benzamido-14-hydroxy-17-(cyclopropylmethyl)nordesmorphine] as the compound, how does the “Percent Inhibition CYP2C9” value (CYP2C9) read?
Answer: 7%

Question: And the EC50 [10]?
Answer: 0.1 nM

Question: And the “Emax, NOP, inhibition of basal [35S]GTPγS binding” value [10]?
Answer: 87 ± 6.9%

Question: And the “Percent Inhibition CYP2D6” value (CYP2D6)?
Answer: 10%

Question: What about the “Emax, μ, stimulation of [35S]GTPγS binding” value (μ-opioid receptor [7]; [20]) of the same compound?
Answer: 85 ± 7.4%

Question: What about the Emax [4] of the same compound?
Answer: 0%

Question: What about the “Emax, κ, inhibition of basal [35S]GTPγS binding” value (κ-opioid receptor [15]) of the same compound?
Answer: 0%

Question: And the EC50 [16]?
Answer: > 10 µM

Question: What about the “Emax, κ, stimulation of [35S]GTPγS binding” value (κ-opioid receptor [8]; [20]) of the same compound?
Answer: 80 ± 7.4%

Question: What about the “Emax, δ, inhibition of basal [35S]GTPγS binding” value (δ-opioid receptor [13]) of the same compound?
Answer: 0%

Question: What about the “Percent Inhibition CYP2C19” value (CYP2C19) of the same compound?
Answer: 39%

Question: What about the “Emax, μ, inhibition of basal [35S]GTPγS binding” value (μ-opioid receptor [6]) of the same compound?
Answer: 0%

Question: What about the “Percent Inhibition CYP2B6” value (CYP2B6) of the same compound?
Answer: 5%

Question: What about the “Percent Inhibition CYP3A4” value (CYP3A4) of the same compound?
Answer: 11%

Question: And the “Emax, δ, stimulation of [35S]GTPγS binding” value (δ-opioid receptor [14]; [20])?
Answer: 85 ± 35%

Question: With `O=C(N[C@@H]1CC[C@@]2(O)[C@H]3Cc4ccc(O)c5c4[C@@]2(CCN3CC2CC2)[C@H]1O5)c1ccc(Cl)cc1` [Compound 10, 6-β-(4′-Chloro)benzamido-14-hydroxy-17-(cyclopropylmethyl)nordesmorphine] as the compound, how does the EC50 [10] read?
Answer: 88 ± 19 nM

Question: And the Emax (μ-opioid receptor [7]; [17])?
Answer: 46 ± 3.8%

Question: What about the Emax (μ-opioid receptor [7]; read-out: Emax, μ, stimulation of [35S]GTPγS binding, percentage of basal [35S]GTPγS binding stimulation) of the same compound?
Answer: 28 to 63%

Question: What about the Emax (κ-opioid receptor [12]) of the same compound?
Answer: 0%

Question: What about the Emax (κ-opioid receptor [8]; read-out: Emax, κ, stimulation of [35S]GTPγS binding, percentage of basal [35S]GTPγS binding stimulation) of the same compound?
Answer: 28 to 63%

Question: What about the Emax (δ-opioid receptor [13]) of the same compound?
Answer: 0%

Question: What about the Emax (μ-opioid receptor [6]) of the same compound?
Answer: 0%

Question: What about the Emax (δ-opioid receptor [14]; [19]) of the same compound?
Answer: 22 ± 1.7%

Question: And the Emax (δ-opioid receptor [14]; read-out: Emax, δ, stimulation of [35S]GTPγS binding, percentage of basal [35S]GTPγS binding stimulation)?
Answer: 28 to 63%

Question: What about the melting point of the same compound?
Answer: 188.8 °C

Question: With `Oc1ccc2c3c1O[C@H]1c4[nH]c5c(c4C[C@@]4(O)[C@@H](C2)N(CC2CC2)CC[C@]314)C[C@@]1(O)[C@H]2Cc3ccc(O)c4c3[C@@]1(CCN2CC1CC1)[C@H]5O4` [Nor-BNI, reference compound] as the compound, how does the “Cocaine self-administration under a PR schedule” value [1] read?
Answer: decreased cocaine intake in LgA rats
